# PMC6600241, “Identification and Structure-Activity Studies of 1,3-Dibenzyl-2-aryl imidazolidines as Novel Hsp90 Inhibitors” (Molecules, 2019)
# Like-named read-outs stand apart in the source and are kept apart here.
# Key:
# MCF-7 cells = experiment: MTT anti-proliferative assay on MCF-7 cells; format: cell-based, human
# Procedure: (§1) The anti-proliferative activity of compounds was determined by MTT (3-[4,5-dimethylthiazole-2-yl]-2,5-diphenyltetrazolium bromide) assay on MCF-7 and A549 cell lines, respectively. Cells were purchased from the Institute of Basic Medical Science, Chinese Academy of Medical Science (Beijing, China). Cells were maintained in RPMI-1640 with 10% fetal bovine serum (FBS) and 1% Penicillin-Streptomycin Solution (PS) and cultured at 37 °C in a humidified atmosphere containing 5% CO2. Compounds to be evaluated were dissolved in DMSO (dimethyl sulfoxide), diluted in RPMI-1640, and stored at −20 °C before use. Cells were seeded in 96-well plates at a density of 5000 cells/well (200 μL) and incubated overnight. Culture medium was replaced with fresh RPMI (Roswell Park Memorial Institute)-1640 containing compounds in different concentrations (100 μM–50 μM–25 μM–12.5 μM–6.25 μM–3.125 μM). Then, cells were incubated in a 5% CO2 incubator for 48 h. The 20 μL MTT solution (5 mg/mL) was added to each well and incubated at 37 °C. After 4 h, the medium was removed and formazan crystals were dissolved in 100 μL DMSO. Absorbance was measured at a wavelength of 490 nm using Synergy H1 (BioTek Instruments, Inc., Winooski, VT, USA). IC50 values were calculated by GraphPad Prism 5 (GraphPad Software, Inc., San Diego, CA, USA).
# A549 cells = experiment: MTT anti-proliferative assay on A549 cells; format: cell-based, human; settings: mean ± SD, three experiments
# Procedure: as §1
# Hsp70 = experiment: Western blotting, Hsp70 expression in MCF-7 cells; format: cell-based, human; settings: 24 h; for expression of Hsp70: MCF-7 cells, compound at IC50 concentration
# Procedure: (§2) Primary antibodies against Hsp70, Hsp90, Her2, and GAPDH were bought from Abcam (Cambridge, MA, USA). HRP (horseradish peroxidase) labeled anti-rabbit immunoglobulin G (H + L) secondary antibody was purchased from Abbkine (Redlands, CA, USA). MCF-7 cells were cultured as described above to a density of 10^6 cells per dish. […] Cells were washed with cold phosphate buffered saline (PBS, pH = 7.4) three times and lysed in radio immunoprecipitation assay (RIPA) lysate (containing 1% phenylmethanesulfonyl fluoride (PMSF)) on ice for 45 min. The lysates were collected and clarified at 12,000× g for 20 min at 4 °C using high speed refrigerated centrifuge. Protein concentration was determined by the bicinchoninic acid (BCA) protein assay kit. The protein sample (20 µg) was electrophoresed using 8% SDS-PAGE (sodium dodecyl sulfate- polyacrylamide gel electrophoresis), transferred to poly(vinylidene fluoride) (PVDF) membranes, and then blocked for 1 h in 5% skim milk in TBST (20 mM Tris-HCl pH 7.4, 100 mM NaCl, and 0.1% Tween 20). The membranes were immunoblotted with primary antibodies for 2 h at room temperature. After incubation with an HRP anti-rabbit IgG (H + L) (1:100,000) as a secondary antibody, the bands were detected using the ECL^TM Prime Western Blotting Detection System (ProteinSimple, San Jose, CA, USA). The density of proteins was determined using the AlphaView SA (Alpha Innotech Corp., version 3.4.0.0, San Leandro, CA, USA).
# Hsp90 = experiment: Western blotting, Hsp90 expression in MCF-7 cells; format: cell-based, human; settings: 24 h; for expression of Hsp90: MCF-7 cells, compound at IC50 concentration
# Procedure: as §2
# human Hsp90α = molecular target: T1, human Hsp90α (Homo sapiens, UniProt P07900); experiment: Fluorescence polarization (FP) competitive binding assay, Hsp90α N-Terminal Domain Assay Kit; settings: FITC-labeled geldanamycin competition, mean ± SD, three experiments
# T1 construct: FP assay using Hsp90α N-Terminal Domain Assay Kit (BPS Bioscience, Catalog #50293, CA, USA); purchased BPS Bioscience 50293
# Procedure: In brief, the Hsp90 assay buffer (15 μL), 40 mM dithiothreitol (DTT) (5 μL), 2 mg/mL BSA (5 μL), and H2O (40 μL) were added to the plate. To each well, 100 nM fluorescein isothiocyanate (FITC)-labeled geldanamycin (5 μL) and diluted compounds in different concentrations (0.5, 5, 50, 500 μM, 10 μL) were added in an orderly manner. The reactions were initiated by adding 20 μL of Hsp90α (17 ng/μL). […] The data were analyzed using GraphPad Prism 5 (GraphPad Software, Inc.).
# Her2 = experiment: Western blotting, Her2 expression in MCF-7 cells; format: cell-based, human; settings: 24 h
# Procedure: as §2
# [1] = Homo sapiens, MCF7, Figure 3, mean ± SD, n = 3, read-out: anti-proliferative activity against MCF-7 cells (IC50), top 21 molecules from virtual screening
# [2] = Homo sapiens, A549, 48-h post treatment
# [3] = Homo sapiens, MCF7, MTT, 48-h post treatment, mean ± SD, three experiments, read-out: IC50 MCF-7
# [4] = MCF-7 cells, 0, 5, 10, 20 and 40 µM
# [5] = MCF-7 cells, compound at IC50 concentration
Molecule,IC50 (A549 cells; [2]),IC50 (MCF-7 cells; [3]),further results
NC(=O)c1nnn(Cc2ccccc2)c1NC(=O)CSc1nnc(-c2ccco2)o1 [Compound 1d],–,–,IC50 (MCF-7 cells; [1]): 243.3 ± 0.99 µM
"c1ccc(CN2CCN(Cc3ccccc3)C2c2cccs2)cc1 [Compound 4c, 1,3-dibenzyl-2-thiophene-imidazolidine]",78.18 ± 0.15 µM,80.04 ± 0.63 µM,–
"c1ccc(CN2CCN(Cc3ccccc3)C2c2cc3ccccc3s2)cc1 [Compound 4f, 1,3-dibenzyl-2-(1-benzothiophene)-imidazolidine]",136 ± 1.41 µM,219.4 ± 0.57 µM,–
Cc1cc(NC(=O)CCS(=O)(=O)c2nc(-c3ccc4c(c3)OCO4)cc(C(F)(F)F)n2)no1 [Compound 3b],–,–,IC50 (MCF-7 cells; [1]): 32.4 ± 0.55 µM
O=C(Cn1c(-c2ccccn2)nc2ccccc21)NCCc1ccccc1 [Compound 2a],–,–,IC50 (MCF-7 cells; [1]): 190.6 ± 1.41 µM
"O=[N+]([O-])c1ccccc1C1N(Cc2ccccc2)CCN1Cc1ccccc1 [Compound 4g, 1,3-dibenzyl-2-(2-nitro-phenyl)-imidazolidine]",40.6 ± 0.51 µM,40.91 ± 0.05 µM,–
Clc1ccc(C2N(c3ccccc3)CCN2c2ccccc2)c(Cl)n1 [Compound 6d],248.6 ± 0.57 µM,323 ± 2.28 µM,–
Brc1cncc(C2N(Cc3ccccc3)CCN2Cc2ccccc2)c1 [Compound 4p],72.87 ± 0.66 µM,45.2 ± 0.63 µM,–
CCOC(=O)c1nnn(Cc2ccccc2Cl)c1NC(=O)CN1CCC(C)CC1 [Compound 1c],–,–,IC50 (MCF-7 cells; [1]): 134 ± 0.42 µM
O=S(=O)(c1ccccc1)c1nc(-c2ccco2)oc1NCc1ccc(F)cc1 [Compound 3e],–,–,IC50 (MCF-7 cells; [1]): 238 ± 0.71 µM
"Clc1ncc(C2N(Cc3ccccc3)CCN2Cc2ccccc2)s1 [Compound 4j, 1,3-dibenzyl-2-(2-chloro-5-thiazolyl)-imidazolidine]",35.3 ± 0.14 µM,33.12 ± 0.23 µM,expression level of Hsp70 regulated (Hsp70; [4]): concentration-dependent manner; expression level of Hsp90 regulated (Hsp90; [4]): concentration-dependent manner; IC50 (human Hsp90α): 0.31 ± 0.014 µM; expression level of Her2 regulated (Her2; [4]): concentration-dependent manner
c1ccc(CN2CCN(Cc3ccccc3)C2c2cncnc2)cc1 [Compound 4r],80.8 ± 1 µM,51.4 ± 0.54 µM,–
Clc1ccc(C2N(Cc3ccccc3)CCN2Cc2ccccc2)c(Cl)n1 [Compound 4n],52.11 ± 0.5 µM,40.4 ± 0.51 µM,IC50 (human Hsp90α): 0.102 ± 0.01 µM
CCN1CCN(CC)C1c1cc(Cl)ccc1F [Compound 7b],164 ± 1.41 µM,158.9 ± 0.14 µM,–
Cc1ccc(O)c(C2N(Cc3ccccc3)CCN2Cc2ccccc2)c1 [Compound 4b],88.58 ± 0.08 µM,50.62 ± 0.26 µM,expression of Hsp70 (Hsp70): significantly induced; expression of Hsp90 (Hsp90): slightly increased; IC50 (human Hsp90α): 0.612 ± 0.014 µM; expression level of Her2 (Her2; [5]): significantly down-regulated
CN1CCN(C)C1c1cc(Cl)ccc1F [Compound 8a],149 ± 1.56 µM,250.1 ± 0.27 µM,–

Molecule,IC50 (A549 cells; [2]),IC50 (MCF-7 cells; [3]),further results
"Clc1ccc(C2N(Cc3ccccc3)CCN2Cc2ccccc2)s1 [Compound 4d, 1,3-dibenzyl-2-(5-chlorothiophene)-imidazolidine]",56.3 ± 1.27 µM,68.35 ± 0.44 µM,IC50 (human Hsp90α): 0.672 ± 0.01 µM
"Cc1ccc(C2N(Cc3ccccc3)CCN2Cc2ccccc2)s1 [Compound 4e, 1,3-dibenzyl-2-(5-Methylthiophene)-imidazolidine]",113 ± 1.41 µM,119.3 ± 0.42 µM,–
CCN1CCN(CC)C1c1ccnc(Cl)c1 [Compound 7a],250.1 ± 1.27 µM,> 500 µM,–
"C=CCNC1=C2CC(C)CC(OC)C(O)C(C)C=C(C)C(OC(N)=O)C(OC)C=CC=C(C)C(=O)NC(=CC1=O)C2=O (stereo not shown) [Compound 17-AAG, reference compound]",3.54 ± 0.08 µM,7.18 ± 0.13 µM,–
O=C(Cn1c(-c2ccccn2)nc2ccccc21)NCCCN1CCOCC1 [Compound 2b],–,–,IC50 (MCF-7 cells; [1]): 310.5 ± 0.71 µM
c1ccc(N2CCN(c3ccccc3)C2c2ccco2)cc1 [Compound 6a],123.4 ± 0.85 µM,40.77 ± 0.39 µM,–
O=S(=O)(c1ccccc1)c1nc(-c2ccc(Cl)cc2)oc1NCCCN1CCOCC1 [Compound 3d],–,–,IC50 (MCF-7 cells; [1]): 70.34 ± 0.2 µM
COc1ccc(-c2nnc(SCC(=O)N3CCOCC3)n2Cc2ccccc2)cc1 [Compound 1b],–,–,IC50 (MCF-7 cells; [1]): 133.6 ± 1.13 µM
Clc1ncc(C2N(c3ccccc3)CCN2c2ccccc2)s1 [Compound 6b],172 ± 1.41 µM,161.6 ± 0.57 µM,–
"O=[N+]([O-])c1ccc(C2N(Cc3ccccc3)CCN2Cc2ccccc2)cc1 [Compound 4h, 1,3-dibenzyl-2-(4-nitro-phenyl)-imidazolidine]",55.6 ± 0.49 µM,117.7 ± 0.01 µM,–
Fc1ccc(Cl)cc1C1N(c2ccccc2)CCN1c1ccccc1 [Compound 6c],46.14 ± 0.2 µM,43.7 ± 1.03 µM,IC50 (human Hsp90α): 1.93 ± 0.013 µM
"Fc1ccc(Cl)cc1C1N(Cc2ccccc2)CCN1Cc1ccccc1 [Compound 4i, 1,3-dibenzyl-2-(5-chloro-2-fluoro-phenyl)-imidazolidine]",59.3 ± 0.83 µM,27.86 ± 0.01 µM,IC50 (human Hsp90α): 0.61 ± 0.014 µM
"1,3-dibenzyl-2-(3-bromo-5-thiazolyl)-imidazolidine [Compound 4k]",–,–,"IC50 (A549 cells; 48-h post treatment): 498.8 ± 0.25 µM; IC50 (MCF-7 cells; MTT, 48-h post treatment, mean ± SD, three experiments, read-out: IC50 MCF-7): 77.01 ± 0.01 µM"
O=[N+]([O-])c1ccc(C2N(Cc3ccccc3)CCN2Cc2ccccc2)s1 [Compound 4a],31.22 ± 0.31 µM,21.6 ± 0.57 µM,expression of Hsp70 (Hsp70): significantly induced; expression of Hsp90 (Hsp90): slightly increased; IC50 (human Hsp90α): 0.012 ± 0.01 µM; expression level of Her2 (Her2; [5]): significantly down-regulated; expression level of Her2 down-regulated to (Her2; [5]): 48%
COc1ccc(C(=O)/C=C/Nc2ccc(S(=O)(=O)Nc3ccc(OC)nn3)cc2)cc1 [Compound 3a],–,–,IC50 (MCF-7 cells; [1]): 29.2 ± 0.34 µM
